Format in all cases: biochemical
Assay [1] addresses T1, Taq DNA polymerase (Thermus aquaticus, UniProt P19821).
T1 construct: purchased Sigma Aldrich, St. Louis, Mo
Briefly: PCR detergent screening for ability to stabilize Taq DNA polymerase. Conditions: for Detergent supported PCR in screening reactions: detergent tested at 5%, 0.5%, 0.05%, 0.005% or 0.0005%. As to the method: A PCR assay was used to screen 47 of the potential candidate detergents for their ability to stabilize Taq DNA polymerase. The final concentration of each detergent tested was 5%, 0.5%, 0.05%, 0.005%, or 0.0005%. A forward primer (5′-[…]-3′; SEQ ID No:1) and a reverse primer (5′-[…]-3′; SEQ ID No:2) were designed to amplify a 500 bp fragment of lambda DNA. Each 10 μl reaction contained:
1 μl 10 μM Forward Primer
1 μl 10 μM Reverse Primer
0.1 μl 5 Units/μl Taq DNA polymerase
The cycling parameters were 94° C. for 15 min and 30 cycles of 94° C. for 30 sec and 70° C. for 30 sec, and a 4° C. hold. For each series of detergents tested, positive control reactions comprising 0.0005% Tween 20 were included, as well as negative control reactions without any detergent. An aliquot of each reaction was resolved by agarose gel electrophoresis.

The target of assay [2] is T1, Taq DNA polymerase. Nature of the assay: Long-term stability of Taq formulations with DTT, assessed by PCR. Conditions: stored at 25° C. 6 to 40 days, higher concentration of DTT (0.2 mM). The procedure:
The long-term stability of Taq formulated with either Tween 20, an anionic detergent, or a zwitterionic detergent was compared in the presence of two concentrations of DTT. Taq was formulated with 0.01% or 0.1% Tween 20, 0.1% or 1% poly(ethylene glycol) 4-nonylphenyl 3 sulfopropyl ether potassium salt, or 1% CHAPS. Each formulation was stored in the presence of 0.02 mM DTT or 0.2 mM DTT at 25° C. for periods of time ranging from 6 days to 40 days. The calculated corresponding periods for storage at −20° C. ranged from about 1.5 years to about 10 years (see FIG. 2). The ability of various formulations of Taq to support PCR was assessed using a PCR assay similar to that described in Example 1. The same primers and reactions conditions were used.
An aliquot of each reaction was resolved by agarose gel electrophoresis.

Assay [3] has as its target T1, Taq DNA polymerase. Nature of the assay: Specificity of PCR amplification (BsrGIO, SacIO fragments) on agarose gel. Conditions: 352 bp and 360 bp fragments, HEK293 genomic DNA. As to the method:
To determine whether amplification in the presence of the anionic detergent, poly (ethylene glycol) 4-nonylphenyl 3-sulfopropyl ether potassium salt, produced less non-specific products, formulations comprising Tween 20 were compared to an anionic detergent formulation. Primers (see Table 4) were designed to amplify a 352 by fragment (BsrGIO) and a 360 by fragment (SacIO) in human genomic DNA. The reactions (50 μl) contained […] HEK293 genomic DNA, […], 1×PCR Buffer, 0.2 mM dNTPs, 0.05 U/μL Taq, and 4% DMSO. Thermocycling parameters were 94° C. for 2 min, 30 cycles of 94° C. for 20 sec, 58° C. for 30 sec, and 72° C. for 80 sec, a final extension at 72° C. for 10 min, and a 4° C. hold.
Aliquots of each sample were run on an agarose gel (FIG. 3). […] This finding raises the possibility that there may be a multimolecular complex comprising template, primer, detergent, and enzyme, and it is possible that the anionic detergent increased the coulombic repulsion between template/primers and the […].

For assay [4], the target named is T1, Taq DNA polymerase. Nature of the assay: SYBR Green quantitative real-time PCR amplification efficiency on human genomic DNA. The following applies: for Efficiency (dilutional efficiency) 14-3-3 / Efficiency (dilutional efficiency) CD14F / Efficiency (dilutional efficiency) HoxA2 / Efficiency (dilutional efficiency) PGK1: slope of serially diluted template plots. Set-up: key to Reaction Efficiencies CD14F: *: No amplification product; key to Ct 14-3-3 / Ct CD14F / Ct HoxA2: cycle at which fluorescence exceeds a defined threshold. The source says: The efficiency of amplification by Taq DNA polymerase in the presence of Tween 20 or the anionic detergent, poly (ethylene glycol) 4-nonylphenyl 3 sulfopropyl ether potassium salt, was compared using SYBR Green quantitative real-time PCR (qPCR) to amplify four different fragments in Msel-digested or intact human genomic DNA. Each reaction comprised 1× Jumpstart Taq Ready mix (Sigma Aldrich, St. Louis, Mo.) formulated with Tween 20 or poly (ethylene glycol) 4-nonylphenyl 3 sulfopropyl ether potassium salt, 1×ROX (reference dye), 0.8×SYBR green, 0.4 μM primers. The template was serially diluted such that reactions contained 25 ng, 2.5 ng, or 0.25 ng of intact DNA or 400 ng, 40 ng, of 4 ng of digested DNA. The cycling profile was 95° C. for 3 min, 35 cycles of 95° C. for 30 sec, 55° C. for 60 sec, and 72° C. for 120 sec.
Table 2 presents the Ct values (which is the cycle that the fluorescence exceeds a defined threshold value) for each amplified product using the different templates. The ‘no template’ control reactions (for every primer pair) produced no amplicons.
The efficiency of amplification was derived from the slopes of the serially diluted template amplification plots (dilutional efficiency), and the percent efficiency is also presented in Table 2.
Individual reaction efficiencies were calculated in an effort to explore the nature of the dilutional efficiency effects. […] That is, reactions with lower amounts of template were less efficiently primed or initiated in the presence of Tween 20 than in the presence of the anionic surfactant. Once the amplification process began, however, the reaction efficiencies were detergent independent.
(Real-time PCR tracks product formation cycle by cycle.)

T1 sequence (P19821 whole entry): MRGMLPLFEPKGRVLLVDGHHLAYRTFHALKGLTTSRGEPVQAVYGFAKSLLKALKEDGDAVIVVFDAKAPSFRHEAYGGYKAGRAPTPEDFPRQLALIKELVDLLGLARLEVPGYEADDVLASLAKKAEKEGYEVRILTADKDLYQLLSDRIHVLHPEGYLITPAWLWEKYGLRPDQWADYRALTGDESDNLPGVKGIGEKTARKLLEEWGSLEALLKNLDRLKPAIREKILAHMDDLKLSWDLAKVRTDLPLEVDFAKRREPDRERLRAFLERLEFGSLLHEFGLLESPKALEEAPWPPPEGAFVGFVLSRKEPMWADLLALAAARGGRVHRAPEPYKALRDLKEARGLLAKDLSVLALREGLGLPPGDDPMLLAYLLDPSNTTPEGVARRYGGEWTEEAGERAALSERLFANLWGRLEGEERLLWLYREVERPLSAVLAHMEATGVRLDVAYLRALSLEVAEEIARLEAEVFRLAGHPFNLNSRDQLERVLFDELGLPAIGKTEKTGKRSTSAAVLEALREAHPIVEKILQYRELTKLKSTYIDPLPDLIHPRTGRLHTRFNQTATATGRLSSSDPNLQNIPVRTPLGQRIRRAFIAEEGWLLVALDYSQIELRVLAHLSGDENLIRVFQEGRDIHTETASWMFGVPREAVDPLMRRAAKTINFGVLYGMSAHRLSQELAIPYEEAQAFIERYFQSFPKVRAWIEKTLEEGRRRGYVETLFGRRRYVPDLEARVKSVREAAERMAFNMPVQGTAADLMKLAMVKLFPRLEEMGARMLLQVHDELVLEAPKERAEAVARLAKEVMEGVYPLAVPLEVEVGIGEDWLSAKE

Consider `C[C@H](CCC(=O)NCCC[N+](C)(C)CCCS(=O)(=O)[O-])[C@H]1CC[C@H]2[C@@H]3[C@H](O)C[C@@H]4C[C@H](O)CC[C@]4(C)[C@@]3(C)C[C@H](O)[C@]12C` [CHAPS, 3-[(3-cholamidopropyl)dimethylammonio]-1-propanesulfonate], for which, at Taq DNA polymerase [1], the “Detergent supported PCR in screening reactions” value (shortened to “Detergent supported PCR”) is on record as “supported PCR”. For the same compound, at Taq DNA polymerase [2], the “Ability of stored Taq formulation to support PCR” value is “substantially able to support PCR”.

As for `C[C@H](CCC(=O)NCCC[N+](C)(C)CC(O)CS(=O)(=O)[O-])[C@H]1CC[C@H]2[C@@H]3[C@H](O)C[C@@H]4C[C@H](O)CC[C@]4(C)[C@H]3C[C@H](O)[C@]12C` (stereo partly shown) [CHAPSO, 3-[(3-cholamidopropyl)dimethylammonio]-2-hydroxy-1-propanesulfonate], on Taq DNA polymerase [1], the “Detergent supported PCR” value is “supported PCR”.

As for “nonyl nonoxynol-15 phosphate [Rhodafac RM710]”, the “Detergent supported PCR” value at Taq DNA polymerase [1] is listed as “supported PCR”. In addition, at Taq DNA polymerase [1] (low concentration of the detergent), the “Amplified products (500 bp lambda DNA fragment) on agarose gel” value is given as “Amplified products were present”.

As to “poly (ethylene glycol) 4-nonylphenyl 3-sulfopropyl ether potassium salt [Anionic]”, the “Non-specific, secondary amplification products compared with standard Tween 20 formulations” value on Taq DNA polymerase [3] was “fewer non-specific, secondary amplification products”. Further, the “Ct 14-3-3” value turned out to be 30.8 at Taq DNA polymerase [4] (Intact DNA, 0.25 ng); 27.88 on Taq DNA polymerase [4] (Intact DNA, 2.5 ng); 24.31 on Taq DNA polymerase [4] (Intact DNA, 25 ng); 28.65 at Taq DNA polymerase [4] (Mse-I digested DNA, 4 ng); 24.86 at Taq DNA polymerase [4] (Mse-I digested DNA, 40 ng); 21.17 on Taq DNA polymerase [4] (Mse-I digested DNA, 400 ng). In addition, the “Ct CD14F” value at Taq DNA polymerase [4] (Intact DNA, 0.25 ng) is recorded as “No Ct”; at Taq DNA polymerase [4] (Intact DNA, 2.5 ng), 33.98; at Taq DNA polymerase [4] (Intact DNA, 25 ng), 28.72; on Taq DNA polymerase [4] (Mse-I digested DNA, 4 ng), “No Ct”; at Taq DNA polymerase [4] (Mse-I digested DNA, 40 ng), 34.72; on Taq DNA polymerase [4] (Mse-I digested DNA, 400 ng), 30.15. For the same compound, the “Ct HoxA2” value at Taq DNA polymerase [4] (Intact DNA, 0.25 ng) came to 30.41; on Taq DNA polymerase [4] (Intact DNA, 2.5 ng), 26.92; at Taq DNA polymerase [4] (Intact DNA, 25 ng), 23.33; at Taq DNA polymerase [4] (Mse-I digested DNA, 4 ng), 29.96; at Taq DNA polymerase [4] (Mse-I digested DNA, 40 ng) it was 26.47; on Taq DNA polymerase [4] (Mse-I digested DNA, 400 ng), 22.27. The “Ct PGK1” value at Taq DNA polymerase [4] (Intact DNA, 0.25 ng) is given as 31.59; at Taq DNA polymerase [4] (Intact DNA, 2.5 ng), 28.33; on Taq DNA polymerase [4] (Intact DNA, 25 ng) it was 23.62; on Taq DNA polymerase [4] (Mse-I digested DNA, 4 ng), 31.38; at Taq DNA polymerase [4] (Mse-I digested DNA, 40 ng), 27.95; at Taq DNA polymerase [4] (Mse-I digested DNA, 400 ng) it was 23.17. For the same compound, the “Reaction Efficiencies 14-3-3” value is recorded as 98% on Taq DNA polymerase [4] (Intact DNA, 0.25); 115% on Taq DNA polymerase [4] (Intact DNA, 2.5); 102% on Taq DNA polymerase [4] (Intact DNA, 25); 103% on Taq DNA polymerase [4] (MseI digested DNA, 4 ng); 107% at Taq DNA polymerase [4] (MseI digested DNA, 40 ng); 101% on Taq DNA polymerase [4] (MseI digested DNA, 400 ng). Besides, the “Reaction Efficiencies CD14F” value on Taq DNA polymerase [4] (Intact DNA, 0.25) is “*”; on Taq DNA polymerase [4] (Intact DNA, 2.5), 124%; on Taq DNA polymerase [4] (Intact DNA, 25) it was 99%; at Taq DNA polymerase [4] (MseI digested DNA, 4 ng), “*”; at Taq DNA polymerase [4] (MseI digested DNA, 40 ng) it was 92%; at Taq DNA polymerase [4] (MseI digested DNA, 400 ng) it was 99%. For the same compound, the “Reaction Efficiencies HoxA2” value is listed as 102% on Taq DNA polymerase [4] (Intact DNA, 0.25); 102% at Taq DNA polymerase [4] (Intact DNA, 2.5); 104% on Taq DNA polymerase [4] (Intact DNA, 25); 99% at Taq DNA polymerase [4] (MseI digested DNA, 4 ng); 101% at Taq DNA polymerase [4] (MseI digested DNA, 40 ng); 100% on Taq DNA polymerase [4] (MseI digested DNA, 400 ng). Besides, the “Reaction Efficiencies PGK1” value on Taq DNA polymerase [4] (Intact DNA, 0.25) is 97%; at Taq DNA polymerase [4] (Intact DNA, 2.5) it was 101%; on Taq DNA polymerase [4] (Intact DNA, 25) it was 98%; on Taq DNA polymerase [4] (MseI digested DNA, 4 ng), 97%; on Taq DNA polymerase [4] (MseI digested DNA, 40 ng), 102%; at Taq DNA polymerase [4] (MseI digested DNA, 400 ng) it was 97%. Also, the “Efficiency (dilutional efficiency) 14-3-3” value on Taq DNA polymerase [4] (Intact DNA) was 105%; at Taq DNA polymerase [4] (Mse-I digested DNA), 75%. The “Efficiency (dilutional efficiency) CD14F” value on Taq DNA polymerase [4] (Intact DNA) is given as 26%; at Taq DNA polymerase [4] (Mse-I digested DNA), 42%. In addition, the “Efficiency (dilutional efficiency) HoxA2” value is 86% on Taq DNA polymerase [4] (Intact DNA) and 69% on Taq DNA polymerase [4] (Mse-I digested DNA). Besides, the results for the “Efficiency (dilutional efficiency) PGK1” value at Taq DNA polymerase [4] (Intact DNA) and on Taq DNA polymerase [4] (Mse-I digested DNA) were 63% and 58%, respectively. In addition, the “Average efficiency of the three amplicons with efficiencies for both formulations” value on Taq DNA polymerase [4] (digested templates) is 67.3%; on Taq DNA polymerase [4] (intact templates), 84.7%. The “Efficiency compared with the corresponding Tween 20 formulation” value at Taq DNA polymerase [4] (each amplicon) was “higher efficiency”. Further, the “Ct values compared with Tween 20-containing amplification mixes” value at Taq DNA polymerase [4] (higher dilutions of template) is “lower Ct values at higher dilutions”. Further, the “Detergent supported PCR” value at Taq DNA polymerase [1] is recorded as “supported PCR”. For the same compound, the “Ability of stored Taq formulation to support PCR” value on Taq DNA polymerase [2] is reported as “able to support PCR at all the times tested”.

On to poly(ethylene glycol) monolaurate, for which the “Detergent supported PCR” value on Taq DNA polymerase [1] is given as “supported PCR”.

For “polyoxyethylene(150)dinonylphenyl ether [Igepal® DM-970]”, the “Detergent supported PCR” value at Taq DNA polymerase [1] is reported as “supported PCR”.

These data come from patent US7972828B2, “Stabilized compositions of thermostable DNA polymerase and anionic or zwitterionic detergent” (Sigma-Aldrich Co., priority 2006, dated 2011).
